In ChEMBL document CHEMBL5728379, “Pyrido five-element aromatic ring compound, preparation method therefor and use thereof” (2021):

Experiment: Enzyme-Linked Immunosorbent Assay: EZH2 wild type: Experimental method: avdin of a final concentration of 100 nM was used to coat 96-well plate at 10 μL/well, placed in a wet box and shaken overnight, and then 100 μL 3% BSA per well was added and blocked for 1 h at room temperature. PRC2 complex (EZH2/EED/SUZ12/RbAp48/AEBP2), H3 (21-44) me0 substrate, methyl donor SAM and compound were added into each well of the blocked 96-well plate. The total reaction system was 100 μL, placed in a wet box and allowed to react for 1 h on shaker at room temperature. The plate was washed with TBS-T [20 mM Tris-HCl (pH 7.2-7.4, room temperature), 150 mM NaCl, 0.1% (v/v) Tween-20] for 3 times, blocked with 3% BSA for 10 min, and anti-H3K27me3 antibody was added and incubated for 1 h in a wet box on shaker at room temperature. The plate was washed again with TBS-T for 3 times, and blocked with 3% BSA per well for 10 min. Horseradish peroxidase-labeled secondary antibody was added and reacted in a wet box at room temperature for 1 h, and finally, washed with TBS-T for 3 times. 2 mg/ml OPD color developing solution (1004/well) was added for coloring, and the reaction was stopped with 2M H2SO4 (50 μL/well). The plate was read by a plate reader at 490 nm and IC50 of the compound was calculated using SoftMax Pro 5.4.1 software.

IC50: < 100 nM
Structure (SMILES): Cc1cc(C)c(CNC(=O)c2cc3cccn3c(C(C)OCc3ccnn3C)c2C)c(=O)[nH]1 (stereo unspecified)
